Patent US20250236629A1, “MEDIUM- OR MACRO-CYCLIC BENZYL-SUBSTITUTED HETEROCYCLE DERIVATIVES AND RELATED USES” (CENTESSA PHARMACEUTICALS (UK) LIMITED, priority 2022, published 2025)

molecular target: T1, human orexin type 2 receptor (hOX2R) (Homo sapiens, UniProt O43614); assay: Orexin type 2 receptor agonist activity, intracellular Ca2+ (FLIPR TETRA) in CHO cells; type: cell-based; settings: CHO cells expressing hOX2R; Ca2+ fluorescence area; 100% = 10 nM human orexin A; read-out: hOx2 pEC50 (converted)
T1 construct: the Orexin receptor cDNA was inserted into pcDNA3.1(+) plasmid vector; expressed in transfected cells
T1 sequence (O43614 1-444): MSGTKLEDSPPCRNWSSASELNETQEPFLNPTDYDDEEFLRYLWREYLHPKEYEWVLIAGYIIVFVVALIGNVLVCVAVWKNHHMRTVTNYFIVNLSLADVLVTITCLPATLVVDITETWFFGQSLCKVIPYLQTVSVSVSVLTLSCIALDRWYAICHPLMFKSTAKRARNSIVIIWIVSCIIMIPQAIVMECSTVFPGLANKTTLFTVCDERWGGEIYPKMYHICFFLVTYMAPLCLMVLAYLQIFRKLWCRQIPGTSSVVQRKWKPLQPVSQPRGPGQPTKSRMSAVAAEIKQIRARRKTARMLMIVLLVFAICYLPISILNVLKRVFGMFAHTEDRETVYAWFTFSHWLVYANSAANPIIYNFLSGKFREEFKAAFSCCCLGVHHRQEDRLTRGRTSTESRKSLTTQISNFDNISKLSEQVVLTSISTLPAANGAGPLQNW
Protocol: Stable cell line generation. Obtainment of cells stably expressing either human orexin type 2 or human orexin type 1 receptor: to obtain a stable cell line the Orexin receptor cDNA was inserted into pcDNA3.1(+) plasmid vector and clones identified by G418 drug resistance selection. […] A single clone for OX2R—CHO and OX1R—CHO were grown in bulk and frozen to generate a cell bank for routine screening.
Measurement of orexin type 2 receptor agonist activity. Chinese hamster ovary (CHO) cells expressing human orexin type 2 receptor (hOX2R) or human orexin type 1 receptor (hOX1R) were seeded in each well of 384 well black clear bottom plates (BD Flacon) at 10,000 cells per well and cultured for 24 hr in an Ham's F12 (Gibco) medium containing 10% fetal calf serum (Sigma Aldrich) under the conditions of 37° C., 5% CO2. After removal of the medium, 50 μl of assay buffer 1 (0.1% bovine serum albumin (Sigma Aldrich), 20 mM HEPES (Molecular Dimensions), […] probenecid (Sigma Aldrich), 1× Calcium 5 dye (Molecular Devices) in Hank's balanced salt solution (Invitrogen)) was added, and the cells were incubated for 60 min under the conditions of 37° C., 5% CO2. A test compound was dissolved in dimethyl sulfoxide (Sigma Aldrich) to 10 mM, and then diluted with assay buffer 2 (20 mM HEPES, Hank's balanced salt solution, 0.1% bovine serum albumin). For the reaction, a test compound solution (10 μl) was added using Fluorescent Imaging Plate Reader TETRA (FLIPR TETRA: manufactured by Molecular Devices), a fluorescence value (excitation wavelength 488 nm, measurement wavelength 570 nm) of each well was measured every one second for 2 min, and the agonist activity was determined using the area of the fluorescence value as an indicator of intracellular Ca^2+ concentration. The agonist activity of the test compound was calculated assuming that the fluorescence value of the well added with only the dilution buffer was 0% and the fluorescence value of the well added with 10 nM human orexin A (Tocris) buffer was 100%.
Values of hOx2 pEC50 in Table B are presented in ranges, in which 6.0≤“+”<7.0, 7.0≤“++”<8.0, 8.0≤“+++”<9.0, and 9.0≤“++++”<10.4.

EC50 [nM] | Compound
1 to 10 | O=C1CCOc2c(F)cc(F)cc2-c2cccc(c2)C[C@H]2[C@@H](NS(=O)(=O)CF)CCCN12 [Example 13, N-((4^2S,4^3S)-1^3,1^5-difluoro-5-oxo-8-oxa-4(2,1)-piperidina-1(1,2),2(1,3)-dibenzenacyclooctaphane-4^3-yl)-1-fluoromethanesulfonamide]
1 to 10 | O=C1CCOc2ccccc2-c2cccc(c2)C[C@H]2[C@@H](NS(=O)(=O)C(F)F)CCCN12 [Example 26, 1,1-difluoro-N-((4^2S,4^3S)-5-oxo-8-oxa-4(2,1)-piperidina-1(1,2),2(1,3)-dibenzenacyclooctaphane-4^3-yl)methanesulfonamide]
0.0398 to 1 | O=C1CCOc2c(F)cccc2-c2cccc(c2)C[C@H]2[C@@H](NS(=O)(=O)C3(F)CC3)[C@@H](F)CCN12 [Example 46, N-((4^2S,4^3R,4^4S)-1^3,4^4-difluoro-5-oxo-8-oxa-4 (2,1)-piperidina-1 (1,2),2 (1,3)-dibenzenacyclooctaphane-4^3-yl)-1-fluorocyclopropane-1-sulfonamide]
1 to 10 | O=C1CCOc2c(F)cccc2-c2cccc(c2)C[C@H]2[C@@H](NS(=O)(=O)C(F)F)CCCN12 [Example 24, 1,1-difluoro-N-((4^2S,4^3S)-1^3-fluoro-5-oxo-8-oxa-4(2,1)-piperidina-1(1,2),2(1,3)-dibenzenacyclooctaphane-4^3-yl)methanesulfonamide]
1 to 10 | O=C1CCOc2c(F)cc(F)cc2-c2cccc(c2)C[C@H]2[C@@H](NS(=O)(=O)C(F)F)CCCN12 [Example 14, N-((4^2S,4^3S)-1^3,1^5-difluoro-5-oxo-8-oxa-4(2,1)-piperidina-1(1,2),2(1,3)-dibenzenacyclooctaphane-4^3-yl)-1,1-difluoromethanesulfonamide]
0.0398 to 1 | C[C@@H](F)S(=O)(=O)N[C@H]1CCCN2C(=O)CCOc3ccccc3-c3cccc(c3)C[C@@H]12 [Example 28, (S)-1-fluoro-N-((4^2S,4^3S)-5-oxo-8-oxa-4(2,1)-piperidina-1(1,2),2(1,3)-dibenzenacyclooctaphane-4^3-yl)ethane-1-sulfonamide]
1 to 10 | CN1CCOc2c(F)cccc2-c2cccc(c2)C[C@H]2[C@@H](NS(=O)(=O)C(F)F)[C@@H](F)CN2C1=O [Example 20, N-((4^2S,4^3R,4^4S)-1^3,4^4-difluoro-6-methyl-5-oxo-9-oxa-6-aza-4(2,1)-pyrrolidina-1(1,2),2(1,3)-dibenzenacyclononaphane-4^3-yl)-1,1-difluoromethanesulfonamide]

Further lines, the molecule ahead of its results:

Compound | EC50 [nM]
CCS(=O)(=O)N[C@H]1[C@@H](F)CN2C(=O)N(C)CCOc3c(F)cccc3-c3cccc(c3)C[C@@H]12 [Example 16, N-((4^2S,4^3R,4^4S)-1^3,4^4-difluoro-6-methyl-5-oxo-9-oxa-6-aza-4(2,1)-pyrrolidina-1(1,2),2(1,3)-dibenzenacyclononaphane-4^3-yl)ethanesulfonamide] | 1 to 10
CN1CCOc2c(F)cccc2-c2cccc(c2F)C[C@H]2[C@@H](NS(=O)(=O)CF)[C@@H](F)CN2C1=O [Example 12, 1-fluoro-N-((4^2S,4^3R,4^4S)-1^3,2^2,4^4-trifluoro-6-methyl-5-oxo-9-oxa-6-aza-4(2,1)-pyrrolidina-1(1,2),2(1,3)-dibenzenacyclononaphane-4^3-yl)methanesulfonamide] | 1 to 10
CN1CCOc2c(F)cccc2-c2cccc(c2)C[C@H]2[C@@H](NS(=O)(=O)CF)C(F)(F)CN2C1=O [Example 7, 1-fluoro-N-((4^2S,4^3R)-1^3,4^4,4^4-trifluoro-6-methyl-5-oxo-9-oxa-6-aza-4(2,1)-pyrrolidina-1(1,2),2(1,3)-dibenzenacyclononaphane-4^3-yl)methanesulfonamide] | 1 to 10
CCS(=O)(=O)N[C@H]1CCCN2C(=O)CCOc3ccccc3-c3cccc(c3F)C[C@@H]12 [Example 27, N-((4^2S,4^3S)-22-fluoro-5-oxo-8-oxa-4(2,1)-piperidina-1(1,2),2(1,3)-dibenzenacyclooctaphane-4^3-yl)ethanesulfonamide] | 1 to 10
CN1CCOc2ccccc2-c2cccc(c2F)C[C@H]2[C@@H](NS(=O)(=O)CF)CCCN2C1=O [Example 32, 1-fluoro-N-((4^2S,4^3S)-2^2-fluoro-6-methyl-5-oxo-9-oxa-6-aza-4(2,1)-piperidina-1(1,2),2(1,3)-dibenzenacyclononaphane-4^3-yl)methanesulfonamide] | 10 to 100
O=C1CCOc2ccccc2-c2cccc(c2)C[C@H]2[C@@H](NS(=O)(=O)C3(F)CC3)CCCN12 [Example 50, 1-fluoro-N-((4^2S,4^3S)-5-oxo-8-oxa-4 (2,1)-piperidina-1 (1,2),2 (1,3)-dibenzenacyclooctaphane-4^3-yl)cyclopropane-1-sulfonamide] | 0.0398 to 1
O=C1N(CC(F)F)CCOc2c(F)cccc2-c2cccc(c2)C[C@H]2[C@@H](NS(=O)(=O)CF)C3(CC3)CN12 [Example 22, N-((2′S,3′S)-6′-(2,2-difluoro-ethyl)-3′-fluoro-5′-oxospiro[cyclopropane-1,4′-9-oxa-6-aza-4(2,1)-pyrrolidina-1(1,2),2(1,3)-dibenzenacyclononaphan]-3′-yl)-1-fluoromethanesulfonamide] | 1 to 10
CN1CCOc2ccccc2-c2cccc(c2)C[C@H]2[C@@H](NS(=O)(=O)C(C)(C)F)C3(CC3)CN2C1=O [Example 38, 2-fluoro-N-((2′S,3′S)-6′-methyl-5′-oxospiro[cyclopropane-1,4′-9-oxa-6-aza-4(2,1)-pyrrolidina-1(1,2),2(1,3)-dibenzenacyclononaphan]-3′-yl)propane-2-sulfonamide] | 1 to 10
CN1CCOc2ccccc2-c2cccc(c2F)C[C@H]2[C@@H](NS(=O)(=O)CF)C3(CC3)CN2C1=O [Example 25, 1-fluoro-N-((2′S,3′S)-2′-fluoro-6′-methyl-5′-oxospiro[cyclopropane-1,4′-9-oxa-6-aza-4(2,1)-pyrrolidina-1(1,2),2(1,3)-dibenzenacyclononaphan]-3′-yl)methanesulfonamide] | 1 to 10
CCN1CCOc2ccccc2-c2cccc(c2)C[C@H]2[C@@H](NS(=O)(=O)C(F)F)C3(CC3)CN2C1=O [Example 10, N-((2′S,3′S)-6′-ethyl-5′-oxospiro[cyclopropane-1,4′-9-oxa-6-aza-4(2,1)-pyrrolidina-1(1,2),2(1,3)-dibenzenacyclononaphan]-3′-yl)-1,1-difluoromethanesulfonamide] | 1 to 10
CCS(=O)(=O)N[C@H]1[C@@H](F)CN2C(=O)N(C)CCOc3ccccc3-c3cccc(c3)C[C@@H]12 [Example 15, N-((4^2S,4^3R,4^4S)-4^4-fluoro-6-methyl-5-oxo-9-oxa-6-aza-4(2,1)-pyrrolidina-1(1,2),2(1,3)-dibenzenacyclononaphane-4^3-yl)ethanesulfonamide] | 1 to 10
CN1CCOc2c(F)cccc2-c2cccc(c2)C[C@H]2[C@@H](NS(=O)(=O)C(F)F)C(F)(F)CN2C1=O [Example 1, 1,1-difluoro-N-((4^2S,4^3R)-1^3,4^4,4^4-trifluoro-6-methyl-5-oxo-9-oxa-6-aza-4(2,1)-pyrrolidina-1(1,2),2(1,3)-dibenzenacyclononaphane-4^3-yl)methanesulfonamide] | 10 to 100
CC(C)S(=O)(=O)N[C@H]1CCCN2C(=O)CCOc3ccccc3-c3cccc(c3F)C[C@@H]12 [Example 3, N-((4^2S,4^3S)-22-fluoro-5-oxo-8-oxa-4(2,1)-piperidina-1(1,2),2(1,3)-dibenzenacyclooctaphane-4^3-yl)propane-2-sulfonamide] | 0.0398 to 1
